Read-outs that look alike come from different tables or passages of the source.
Experiments:
[1] = biological target: CT-L activity of purified 20S proteasome (Oryctolagus cuniculus, UniProt G1SU71+G1T4Q9); experiment: Proteolytic activity of purified 20S proteasome, CT-L; assay type: biochemical, rabbit
T80-Hras ovarian cells = experiment: MTT cell viability assay; assay type: cell-based, human; details: read-out: IC50 cell viability (MTT)
[2] = system: primary multiple myeloma cells from patients' bone marrow; experiment: Proliferation of primary MM cells; assay type: cell-based, human; details: read-out: IC50 Proliferation
[3] = system: primary multiple myeloma cells from patients' bone marrow; experiment: Cell death of primary MM cells; assay type: cell-based, human; details: read-out: IC50 Cell Death
[4] = system: MCF-7 human breast tumors; experiment: MCF-7 xenograft in nude mice; assay type: in vivo; details: MCF-7 s.c. xenograft, 1 mpk i.p. 2x weekly; for average tumor size: start ~200 mm^3, 16 days
A549 human lung tumors = experiment: A549 xenograft in nude mice; assay type: in vivo; details: A549 s.c. xenograft, 1 mpk i.p. 2x weekly; for average tumor size: start ~200 mm^3, 16 days
[5] = biological target: tumor CT-L activity of the proteasome (Homo sapiens, UniProt P20618+P28074); experiment: Proteasome activity in A549 tumor lysates after in vivo treatment, CT-L; design: species or system nude mice; details: A549 tumors, 1 mpk i.p., 2 h after last injection
[6] = biological target: tumor T-L activity of the proteasome (Homo sapiens, UniProt Q99436); experiment: Proteasome activity in A549 tumor lysates after in vivo treatment, T-L; design: species or system nude mice; details: A549 tumors, 1 mpk i.p., 2 h after last injection
[7] = biological target: tumor PGPH activity of the proteasome (Homo sapiens, UniProt P28072); experiment: Proteasome activity in A549 tumor lysates after in vivo treatment, PGPH; design: species or system nude mice; details: A549 tumors, 1 mpk i.p., 2 h after last injection
[8] = system: p27^Kip1 levels in A549 lung cancer cells; experiment: Western blot of p27Kip1 in cultured A549 cells; assay type: cell-based, human; details: 48 h
[9] = system: MCF-7/MCF-10A, T80-Hras/T80, C7-Kras/C7 cells; experiment: TUNEL apoptosis assay in 3 pairs of cell lines; assay type: cell-based, human; details: 24 h
[10] = system: all cancer and non-transformed cell lines except RPMI-8226; experiment: MTT cell viability assay, panel of cancer and non-transformed cell lines; assay type: cell-based; details: Homo sapiens, RPMI-8226, 24 h, read-out: IC50 cell viability (MTT)
[11] = biological target: T-L activity of purified 20S proteasome (Oryctolagus cuniculus, UniProt G1SWK8); experiment: Proteolytic activity of purified 20S proteasome, T-L; assay type: biochemical, rabbit; details: read-out: IC50 T-L, in vitro
[12] = biological target: PGPH activity of purified 20S proteasome (Oryctolagus cuniculus, UniProt G1T235); experiment: Proteolytic activity of purified 20S proteasome, PGPH; assay type: biochemical, rabbit; details: read-out: IC50 PGPH, in vitro
[13] = system: MCF-7 breast cancer cells; experiment: MTT cell viability assay; assay type: cell-based, human; details: read-out: IC50 cell viability (MTT)
[14] = system: MCF-10A immortalized non-transformed breast cells; experiment: MTT cell viability assay; assay type: cell-based, human
[15] = system: C7-Kras (HPDE6-C7K-ras) pancreatic cells; experiment: MTT cell viability assay; assay type: cell-based, human
[16] = system: C7 (HPDE6-C7) normal/immortalized pancreatic duct epithelial cells; experiment: MTT cell viability assay; assay type: cell-based, human; details: read-out: IC50 cell viability (MTT)
[17] = system: DU-145 prostate cancer cells; experiment: MTT cell viability assay; assay type: cell-based, human; details: read-out: IC50 cell viability (MTT)
[18] = system: LNCaP prostate cancer cells; experiment: MTT cell viability assay; assay type: cell-based, human
CaLu-1 lung cancer cells = experiment: MTT cell viability assay; assay type: cell-based, human; details: read-out: IC50 cell viability (MTT)
A549 lung cancer cells = experiment: MTT cell viability assay; assay type: cell-based, human; details: read-out: IC50 cell viability (MTT)
[19] = system: U266 multiple myeloma cells; experiment: MTT cell viability assay; assay type: cell-based, human; details: read-out: IC50 cell viability (MTT)
[20] = system: RPMI-8226 multiple myeloma cells; experiment: MTT cell viability assay; assay type: cell-based, human; details: read-out: IC50 cell viability (MTT)
[21] = biological target: T1, CT-L activity of the proteasome in primary multiple myeloma cells (Homo sapiens, UniProt P20618+P28074); experiment: CT-L activity in primary MM cells from patients' bone marrow; assay type: cell-based; details: read-out: IC50 CT-L Activity
T1 sequence (P28074 60-263): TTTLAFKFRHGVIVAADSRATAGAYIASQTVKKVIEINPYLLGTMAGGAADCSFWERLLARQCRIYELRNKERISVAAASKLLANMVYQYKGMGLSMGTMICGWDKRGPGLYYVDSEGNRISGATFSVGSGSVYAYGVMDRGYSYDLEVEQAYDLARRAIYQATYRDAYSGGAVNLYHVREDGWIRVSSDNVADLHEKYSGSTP
T1 sequence (P20618 29-241): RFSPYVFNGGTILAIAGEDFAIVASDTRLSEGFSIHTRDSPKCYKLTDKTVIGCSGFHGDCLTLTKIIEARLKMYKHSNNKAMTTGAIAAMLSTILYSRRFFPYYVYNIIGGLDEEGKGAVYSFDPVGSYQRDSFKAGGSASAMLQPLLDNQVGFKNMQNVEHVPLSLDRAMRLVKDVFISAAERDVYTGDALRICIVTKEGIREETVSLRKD

[22] = system: primary multiple myeloma cells from patients' bone marrow; experiment: Viability of primary MM cells; assay type: cell-based, human; details: read-out: IC50 Viability
[23] = biological target: hepatic CT-L, T-L, and PGPH activities (Mus musculus, UniProt O09061+O55234+P70195+Q60692); assay type: in vivo, nude mice; details: livers of A549 tumor-bearing mice, 1 mpk i.p., 2 h after last injection
[24] = biological target: CT-L activity in MCF-7/MCF-10A, T80-Hras/T80, C7-Kras/C7 cells (Homo sapiens, UniProt P20618+P28074); assay type: cell-based; details: 24 h, 3 pairs of cell lines, Fig. 2
[25] = system: MCF-7/MCF-10A, T80-Hras/T80, C7-Kras/C7 cells; experiment: Proliferation by Trypan Blue cell counting in 3 pairs of cell lines; assay type: cell-based, human; details: 24 h, Fig. 3
[26] = system: MCF-7/MCF-10A, T80-Hras/T80, C7-Kras/C7 cells; experiment: Cell death by Trypan Blue exclusion in 3 pairs of cell lines; assay type: cell-based, human; details: 24 h, Fig. 4
[27] = Tolerability in treated mice; assay type: in vivo; details: mice treated with PI-083
[28] = Homo sapiens, Multiple myeloma cell, 24 h
[29] = read-out: IC50 cell viability (MTT), 24 h
[30] = read-out: IC50 cell viability (MTT), 72 h

Sequence of CT-L activity of purified 20S proteasome (G1T4Q9 60-263): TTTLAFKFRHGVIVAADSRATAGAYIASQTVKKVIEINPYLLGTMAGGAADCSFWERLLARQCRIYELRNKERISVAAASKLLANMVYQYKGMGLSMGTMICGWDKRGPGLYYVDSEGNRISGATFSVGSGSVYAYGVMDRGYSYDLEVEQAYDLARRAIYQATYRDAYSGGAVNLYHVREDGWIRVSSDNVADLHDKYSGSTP
Sequence of CT-L activity of purified 20S proteasome (G1SU71 29-241): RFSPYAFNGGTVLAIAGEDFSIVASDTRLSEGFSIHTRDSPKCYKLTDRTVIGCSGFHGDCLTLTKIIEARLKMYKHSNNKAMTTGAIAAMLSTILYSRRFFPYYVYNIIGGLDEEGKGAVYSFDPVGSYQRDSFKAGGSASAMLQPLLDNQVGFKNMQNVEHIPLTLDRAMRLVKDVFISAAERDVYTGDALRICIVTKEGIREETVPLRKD
Sequence of T-L activity of purified 20S proteasome (G1SWK8 44-271): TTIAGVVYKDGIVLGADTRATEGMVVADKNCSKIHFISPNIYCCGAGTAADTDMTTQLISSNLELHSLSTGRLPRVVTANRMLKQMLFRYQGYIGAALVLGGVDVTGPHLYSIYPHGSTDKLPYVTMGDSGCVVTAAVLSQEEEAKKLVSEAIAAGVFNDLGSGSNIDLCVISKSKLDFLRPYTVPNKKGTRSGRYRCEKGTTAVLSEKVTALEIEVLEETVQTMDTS
Sequence of PGPH activity of purified 20S proteasome (G1T235 96-265): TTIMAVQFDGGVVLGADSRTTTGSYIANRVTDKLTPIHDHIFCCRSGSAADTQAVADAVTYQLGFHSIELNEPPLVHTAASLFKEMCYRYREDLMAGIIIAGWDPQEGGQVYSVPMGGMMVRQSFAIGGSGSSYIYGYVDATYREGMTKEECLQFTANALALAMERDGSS

## CC(C)C[C@H](NC(=O)[C@H](Cc1ccccc1)NC(=O)c1cnccn1)B(O)O [Bortezomib]
[1]; CT-L, Bortezomib vs PI-083
  difference in potency between Bortezomib and PI-083: 100 fold
T80-Hras ovarian cells; Homo sapiens, 24 h
  IC50: > 30000 nM
T80-Hras ovarian cells; Homo sapiens, 72 h
  IC50: 24 ± 10 nM
[2]; [28]
  IC50: > 10 µM
[2]; patient 1, 24 h
  IC50: > 10 µM
[2]; patient 2, 24 h
  IC50: > 10 µM
[2]; patient 3, 24 h
  IC50: > 10 µM
[2]; patient 5, 24 h
  IC50: > 10 µM
[2]; patient 6, 24 h
  IC50: > 10 µM
[2]; patient 7, 24 h
  IC50: > 10 µM
[2]; patient 8, 24 h
  IC50: > 10 µM
[2]; patient 9, 24 h
  IC50: > 10 µM
[2]; patient 10, 24 h
  IC50: > 10 µM
[3]; [28]
  IC50: > 10 µM
[3]; patient 1, 24 h
  IC50: > 10 µM
[3]; patient 2, 24 h
  IC50: > 10 µM
[3]; patient 3, 24 h
  IC50: > 10 µM
[3]; patient 5, 24 h
  IC50: > 10 µM
[3]; patient 6, 24 h
  IC50: > 10 µM
[3]; patient 7, 24 h
  IC50: > 10 µM
[3]; patient 8, 24 h
  IC50: > 10 µM
[3]; patient 9, 24 h
  IC50: > 10 µM
[3]; patient 10, 24 h
  IC50: > 10 µM
[4]
  antitumor effect (in words): ineffective
  average tumor size: 1,448 ± 145 mm^3
A549 human lung tumors
  average tumor size: 864 ± 207 mm^3
[5]
  inhibition of tumor CT-L activity vs vehicle-treated controls: 70%
[6]
  inhibition of tumor T-L activity vs vehicle-treated controls: 0%
[7]
  inhibition of tumor PGPH activity vs vehicle-treated controls: 68%
[8]
  p27^Kip1 levels: marked increase
[9]; any of the 6 cell lines
  apoptosis (TUNEL): induced little apoptosis
[10]
  IC50: > 30 µM

## O=C1C(Cl)=C(Nc2ccc(S(=O)(=O)Nc3ccccn3)cc2)C(=O)c2ccccc21 [PI-083]
[1]; read-out: IC50 CT-L, purified 20S proteasome, in vitro
  IC50: 1000 ± 630 nM
[11]
  IC50: 4.5 ± 1.4 µM
[12]
  IC50: 4.5 ± 1.2 µM
[13]; MCF-7, 24 h
  IC50: 4.5 ± 0.82 µM
[13]; MCF-7, 72 h
  IC50: 2.2 ± 1.1 µM
[14]; [29]
  IC50: 17 ± 0.86 µM
[14]; [30]
  IC50: 4.2 ± 2.1 µM
[15]; [29]
  IC50: 2400 ± 230 nM
[15]; [30]
  IC50: 1900 ± 200 nM
[16]; C7, 24 h
  IC50: 5.1 ± 0.53 µM
[16]; C7, 72 h
  IC50: 4.2 ± 1.6 µM
T80-Hras ovarian cells; T80-Hras, 24 h
  IC50: 1500 ± 570 nM
T80-Hras ovarian cells; T80-Hras, 72 h
  IC50: 2100 ± 400 nM
[17]; DU-145, 24 h
  IC50: 8.6 ± 0.63 µM
[17]; DU-145, 72 h
  IC50: 5 ± 0.72 µM
[18]; [29]
  IC50: 14 ± 2.8 µM
[18]; [30]
  IC50: 5.2 ± 1.1 µM
CaLu-1 lung cancer cells; CaLu-1, 24 h
  IC50: 7.3 ± 0.43 µM
CaLu-1 lung cancer cells; CaLu-1, 72 h
  IC50: 4.9 ± 1.2 µM
A549 lung cancer cells; A549, 24 h
  IC50: 41 ± 17 µM
A549 lung cancer cells; A549, 72 h
  IC50: 11 ± 6.7 µM
[19]; U266, 24 h
  IC50: 23 ± 1.7 µM
[19]; U266, 72 h
  IC50: 7 ± 1.5 µM
[20]; RPMI-8226, 24 h
  IC50: 7.4 ± 0.38 µM
[20]; RPMI-8226, 72 h
  IC50: 10 ± 4 µM
[21]; patient 3, 24 h
  IC50: 1400 nM
[21]; patient 6, 24 h
  IC50: 1200 nM
[21]; patient 9, 24 h
  IC50: 1800 nM
[2]; patient 1, 24 h
  IC50: 5 µM
[2]; patient 2, 24 h
  IC50: 2.9 µM
[2]; patient 4, 24 h
  IC50: 1.3 µM
[2]; patient 5, 24 h
  IC50: 2.2 µM
[2]; patient 6, 24 h
  IC50: 2.2 µM
[2]; patient 10, 24 h
  IC50: 10 µM
[3]; patient 5, 24 h
  IC50: 1.1 µM
[3]; patient 10, 24 h
  IC50: 9 µM
[22]; patient 2, 24 h
  IC50: > 10000 nM
[22]; patient 3, 24 h
  IC50: > 10000 nM
[22]; patient 4, 24 h
  IC50: 2200 nM
[22]; patient 4, 72 h
  IC50: 2200 nM
[22]; patient 5, 24 h
  IC50: 3400 nM
[22]; patient 6, 72 h
  IC50: 1400 nM
[22]; patient 7, 24 h
  IC50: 1800 nM
[22]; patient 7, 48 h
  IC50: 1400 nM
[22]; patient 7, 72 h
  IC50: 1300 nM
[22]; patient 8, 24 h
  IC50: 2000 nM
[22]; patient 8, 72 h
  IC50: 1800 nM
[22]; patient 9, 24 h
  IC50: 1400 nM
[22]; patient 10, 24 h
  IC50: > 10000 nM
[4]
  tumor growth inhibition: 84%
  average tumor size: about 396 ± 137 mm^3
A549 human lung tumors
  tumor growth inhibition: 54%
  average tumor size: about 511 ± 134 mm^3
[5]
  inhibition of tumor CT-L activity vs vehicle-treated controls: 43%
[6]
  inhibition of tumor T-L activity vs vehicle-treated controls: 12%
[7]
  inhibition of tumor PGPH activity vs vehicle-treated controls: 34%
[23]
  effect on liver proteasome activities (CT-L, T-L, PGPH): did not inhibit
[8]
  p27^Kip1 levels: marked increase
[24]
  selectivity of CT-L inhibition, tumor vs non-transformed cells: inhibited more selectively the CT-L activity in tumor over non-transformed cells
[25]
  inhibition of proliferation, cancer vs non-transformed cells: more potently than their non-transformed
[26]
  cell death, cancer vs non-transformed cells: much more effective in increasing cell death in all 3 cancer cell lines over their non-transformed counterparts
[9]; T80 cells
  apoptosis (TUNEL): induced very little apoptosis
[9]; cancer cell lines MCF-7, T80-Hras and C7-Kras
  apoptosis (TUNEL): induced apoptosis in all 3 cancer cell lines
[9]; non-transformed MCF-10A and C7
  apoptosis (TUNEL): did not induce apoptosis
[27]
  weight, appetite, activity of treated mice: no weight loss, change in appetite or activity

Source: paper PMC2892826 (Cell cycle (Georgetown, Tex.), 2009)
